Test results from patent US20220152028A1, “COMBINATION DRUG TREATMENT FOR HUMAN CYTOMEGALOVIRUS” (Microbiotix, Inc., priority 2019, published 2022).

Assays:
[1] = biological target: HCMV DNA polymerase UL54 (Human cytomegalovirus, UniProt P08546); details: higher than GCV-TP; cited from earlier work
[2] = test system: HCMV (strain AD169); assay: Plaque reduction assay in HFF cells infected with HCMV strain AD169; assay type: cell-based, human cytomegalovirus; details: Human betaherpesvirus 5, 216 h, plaque count after 9 days, read-out: EC50, compound tested separately
Method: We examined the in vitro anti-HCMV (strain AD169; ATCC #VR-538) activity of filociclovir and letermovir both separately and as triplicate combinations at a concentration range of 0.0064-100 μM, and 0.0064-100 nM, respectively.
Monolayers of human foreskin fibroblasts (HFF cells; ATCC #SCRC-1041) were grown in 1 ml of DMEM (Corning #10-013-CM) containing 10% heat-inactivated fetal bovine serum (Gibco #A38402-01) and 1% penicillin-streptomycin solution (Hyclone #SV30010) in 24-well plates and infected with 100 plaque forming units (PFUs) of HCMV. Following incubation for 1 hr at 37° C., the virus was aspirated and replaced with MEM (Corning #50-010-PB) containing 1% methyl cellulose (Sigma #M-0521) and the various concentrations of filociclovir and letermovir were added as set forth above. A set of wells, designated as non-treated controls, received neither of the two compounds.
Infected plates were incubated for 9 days at 37° C., then fixed and stained with crystal violet stain (0.1% in 20% methanol). The number of plaques in each well was counted and the level of synergism was assessed using MacSynergy™ II (Prichard and Shipman 1990, supra), which provides an overall evaluation of the deviation from the theoretical additive effect of both drugs based on individual dose-response curves.

[3] = test system: HCMV control strain UL56 wt; assay: SEAP reporter susceptibility assay in ARPEp cells, baseline strain; assay type: cell-based, human cytomegalovirus; details: Human betaherpesvirus 5, 144 h, read-out: Mean EC50
Excerpt: (§1) These UL56 amino acid substitutions were introduced into the bacterial artificial chromosome (BAC) clone BD2 of HCMV laboratory strain AD169 modified with a secreted alkaline phosphatase (SEAP) reporter gene, as previously described (Chou, S., Antimicrob. Agents Chemother., 59: 6588-6593 (2015)). The mutagenized BAC clones were transfected into modified retinal epithelial (ARPEp) cells and the recovered infectious recombinant viruses were then genotyped and phenotyped as previously described (Chou et al., Antimicrob. Agents Chemother., 62(9): e00922-18 (2018)).
(§2) Control strains included a baseline strain of wild-type UL56 and a UL97 M460V mutant that is resistant to […]. For susceptibility assays, calibrated viral inocula were added to 24-well plate cultures of ARPEp cells and incubated under a series of filociclovir concentrations, and the concentrations required to reduce SEAP activity by 50% (EC50) at 6 days were determined in duplicate assays on each of 3 to 5 setup dates.

[4] = test system: HCMV UL97 M460V mutant; assay: SEAP reporter susceptibility assay in ARPEp cells, UL97 M460V; assay type: cell-based, human cytomegalovirus
Excerpt: as §1, §2

[5] = test system: HCMV UL56 mutant V231L; assay: SEAP reporter susceptibility assay in ARPEp cells, UL56 V231L; assay type: cell-based, human cytomegalovirus
Excerpt: (§3) In order to test the effect of filociclovir on letermovir-resistant strains, we used 4 HCMV UL56 mutants encountered in clinical practice: V231L, V236M, C325F and C325Y, the latter 2 of which commonly emerged to confer absolute letermovir resistance (Grantham et al., Biol. Blood Marrow Transplant. 25: S344-S345 (2019); Turner et al., Antimicrob. Agents Chemother., 63(3): e02337-18 (2019)).
as §1, §2

[6] = test system: HCMV UL56 mutant V236M; assay: SEAP reporter susceptibility assay in ARPEp cells, UL56 V236M; assay type: cell-based, human cytomegalovirus
Excerpt: as §3, §1, §2

[7] = test system: HCMV UL56 mutant C325F; assay: SEAP reporter susceptibility assay in ARPEp cells, UL56 C325F; assay type: cell-based, human cytomegalovirus
Excerpt: as §3, §1, §2

[8] = test system: HCMV UL56 mutant C325Y; assay: SEAP reporter susceptibility assay in ARPEp cells, UL56 C325Y; assay type: cell-based, human cytomegalovirus
Excerpt: as §3, §1, §2

[9] = test system: HCMV UL56 mutants (V231L, V236M, C325F, C325Y); assay: SEAP reporter susceptibility assay in ARPEp cells, UL56 mutants as a group; assay type: cell-based, human cytomegalovirus; details: Human betaherpesvirus 5, read-out: mean EC50 values against the UL56 mutants tested
Excerpt: as §3, §1, §2

[10] = test system: HCMV; details: literature statement; cited from earlier work
[11] = Human betaherpesvirus 5, 144 h, read-out: Mean EC50

Sequence of HCMV DNA polymerase UL54 (P08546 whole entry): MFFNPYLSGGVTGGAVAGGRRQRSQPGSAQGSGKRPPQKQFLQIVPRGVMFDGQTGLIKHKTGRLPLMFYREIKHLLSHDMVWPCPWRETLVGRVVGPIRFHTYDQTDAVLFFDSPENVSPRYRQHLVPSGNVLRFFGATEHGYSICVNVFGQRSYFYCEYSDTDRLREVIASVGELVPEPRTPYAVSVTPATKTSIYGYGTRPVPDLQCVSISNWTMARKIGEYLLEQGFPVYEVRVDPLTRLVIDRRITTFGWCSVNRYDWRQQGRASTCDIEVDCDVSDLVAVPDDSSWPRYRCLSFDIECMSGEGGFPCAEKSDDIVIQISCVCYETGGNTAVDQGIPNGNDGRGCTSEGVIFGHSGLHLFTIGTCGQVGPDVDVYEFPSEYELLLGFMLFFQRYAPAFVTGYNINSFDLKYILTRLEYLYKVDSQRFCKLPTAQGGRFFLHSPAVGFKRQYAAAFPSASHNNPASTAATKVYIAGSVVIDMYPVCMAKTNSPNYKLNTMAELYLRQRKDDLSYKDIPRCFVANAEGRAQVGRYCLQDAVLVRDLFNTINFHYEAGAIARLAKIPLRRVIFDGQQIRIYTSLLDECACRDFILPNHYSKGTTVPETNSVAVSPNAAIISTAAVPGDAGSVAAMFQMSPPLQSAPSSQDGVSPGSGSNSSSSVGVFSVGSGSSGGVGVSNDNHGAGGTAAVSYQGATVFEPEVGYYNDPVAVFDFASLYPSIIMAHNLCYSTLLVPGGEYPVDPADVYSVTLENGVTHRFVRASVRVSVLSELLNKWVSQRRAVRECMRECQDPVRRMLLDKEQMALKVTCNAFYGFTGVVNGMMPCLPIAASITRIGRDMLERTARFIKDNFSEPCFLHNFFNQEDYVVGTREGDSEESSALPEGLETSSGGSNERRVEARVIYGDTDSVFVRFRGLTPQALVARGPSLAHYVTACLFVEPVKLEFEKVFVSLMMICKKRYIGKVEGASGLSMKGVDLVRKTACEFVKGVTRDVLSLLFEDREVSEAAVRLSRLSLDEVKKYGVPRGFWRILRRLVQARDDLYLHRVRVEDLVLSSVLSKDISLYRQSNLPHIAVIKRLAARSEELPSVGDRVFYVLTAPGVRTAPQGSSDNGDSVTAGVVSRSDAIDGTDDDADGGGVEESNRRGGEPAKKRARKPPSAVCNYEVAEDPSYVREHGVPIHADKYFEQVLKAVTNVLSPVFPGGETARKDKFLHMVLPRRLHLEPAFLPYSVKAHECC

SMILES | affinity to HCMV DNA polymerase UL54 relative to GCV-TP [1] | EC50 [2] [nM] | EC50 [3] [nM] | EC50 [4, 11] [nM] | Ratio = EC50 of mutant/EC50 of wild type control ([4]; UL97 M460V) | EC50 [5, 11] [nM] | Ratio = EC50 of mutant/EC50 of wild type control ([5]; UL56 V231L) | EC50 [6, 11] [nM] | Ratio = EC50 of mutant/EC50 of wild type control ([6]; UL56 V236M) | EC50 [7, 11] [nM] | Ratio = EC50 of mutant/EC50 of wild type control ([7]; UL56 C325F) | EC50 [8, 11] [nM] | Ratio = EC50 of mutant/EC50 of wild type control ([8]; UL56 C325Y) | EC50 [9] [nM] | EC50 values [10]
Nc1nc2c(ncn2/C=C2/CC2(CO)COP(=O)(O)OP(=O)(O)OP(=O)(O)O)c(=O)[nH]1 (stereo not shown) [FCV-TP, FCV triphosphate] | about 10 fold | – | – | – | – | – | – | – | – | – | – | – | – | – | –
Nc1nc2c(ncn2/C=C2/CC2(CO)CO)c(=O)[nH]1 [Filociclovir, (Z)-9-{[2,2-bis-(hydroxymethyl)cyclopropylidene]methyl}guanine] | – | 550 | 430 | 2030 | 4.8 | 290 | 0.69 | 350 | 0.81 | 350 | 0.82 | 380 | 0.89 | 290 to 380 | –
COc1cccc(N2CCN(C3=Nc4c(F)cccc4[C@H](CC(=O)O)N3c3cc(C(F)(F)F)ccc3OC)CC2)c1 [letermovir, 2-[(4S)-8-fluoro-2-[4-(3-methoxyphenyl)piperazin-1-yl]-3-[2-methoxy-5-(trifluoromethyl)phenyl]-4H-quinazolin-4-yl]acetic acid, reference compound] | – | 3 | – | – | – | – | – | – | – | – | – | – | – | – | nanomolar range
